Experiments:
[1] = tested on: mouse; conditions: Carcinogenicity, other, Oral, Feed, dose end: 92 week, group: systemic
[2] = tested on: rat; conditions: Combined chronic toxicity/carcinogenicity, wistar, Oral, Feed, dose end: 104 week, group: systemic
[3] = tested on: rat; conditions: Subchronic oral toxicity in rodents, fischer, Water, dose end: 13 week, group: systemic
[4] = tested on: rat; conditions: Combined chronic toxicity/carcinogenicity; fischer; Oral; Water; dose end: 21 month; group: systemic; systemic / pathology microscopic / heart / thrombus + systemic / pathology microscopic / liver / degeneration + systemic / pathology …
[5] = tested on: rat; conditions: Subchronic oral toxicity in rodents, fischer, Water, dose end: 13 week, group: systemic; remark: listed apart in the source
[6] = tested on: rat; conditions: Developmental neurotoxicity study; Oral; Feed; dose end: 90 PND; group: cannot be grouped; systemic / organ weight / liver / relative to body weight + systemic / pathology microscopic / liver / vacuolization
[7] = tested on: mouse; conditions: Subchronic oral toxicity in rodents, b6c3f1, Feed, dose end: 6 week, group: systemic, systemic / in life observation / mortality / mortality
[8] = tested on: rat; conditions: Subchronic oral toxicity in rodents, other, Feed, dose end: 6 week, group: systemic
[9] = tested on: rat; conditions: Subchronic oral toxicity in rodents, fischer, Feed, dose end: 8 week, group: systemic
[10] = tested on: mouse; conditions: Carcinogenicity, b6c3f1, Oral, Feed, dose end: 80 week, group: systemic
[11] = tested on: rat; conditions: Carcinogenicity, other, Oral, Feed, dose end: 80 week, group: systemic
[12] = tested on: mouse; conditions: Multigenerational reproductive toxicity study; other; Oral; Feed; dose end: 1 generation; group: reproductive; reproductive / offspring survival early / litter size / litter size
[13] = tested on: rat; conditions: Carcinogenicity; fischer; Oral; Feed; dose end: 105 week; group: systemic; systemic / in life observation / clinical signs / convulsions + systemic / in life observation / clinical signs / nervousness + systemic / …
[14] = systemic / pathology microscopic / liver / depletion glycogen
[15] = systemic / pathology microscopic / liver / depletion glycogen + systemic / pathology microscopic / lung / adenocarcinoma + systemic / …
[16] = systemic / pathology microscopic / liver / hypertrophy + systemic / pathology microscopic / thyroid gland / [other]
[17] = systemic / pathology microscopic / liver / hypertrophy + systemic / pathology microscopic / thyroid gland / [other] + systemic / in life …
[18] = systemic / clinical chemistry / creatinine / creatinine + systemic / clinical chemistry / thyroxine (t4) / thyroxine (t4), total + systemic…
[19] = systemic / in life observation / body weight / body weight + systemic / pathology microscopic / kidney / nephropathy + systemic / pathology …
[20] = systemic / in life observation / body weight / body weight gain + systemic / organ weight / kidney / relative to body weight + systemic / …
[21] = systemic / organ weight / liver / relative to body weight
[22] = systemic / in life observation / body weight / body weight
[23] = systemic / in life observation / body weight / body weight + systemic / in life observation / mortality / mortality
[24] = systemic / pathology microscopic / brain / necrosis + systemic / in life observation / body weight / body weight + systemic / in life …
[25] = systemic / in life observation / clinical signs / excitation + systemic / in life observation / clinical signs / tremors
[26] = systemic / in life observation / clinical signs / excitation + systemic / in life observation / clinical signs / tremors + systemic / in …
[27] = systemic / in life observation / body weight / body weight + systemic / in life observation / clinical signs / [other] + systemic / in life …

## CC1(C)[C@H](C(=O)OCc2cccc(Oc3ccccc3)c2)[C@@H]1C=C(Cl)Cl [1RS cis-Permethrin]
[1]; [14]
  LEL: 10 mg/kg/day
  NEL: < 10 mg/kg/day
[1]; [15]
  LOAEL: > 250 mg/kg/day
  NOAEL: ≥ 250 mg/kg/day
[2]; [16]
  LEL: 50 mg/kg/day
  LOAEL: 50 mg/kg/day
[2]; [17]
  NEL: 10 mg/kg/day
  NOAEL: 10 mg/kg/day

## COc1cc(-c2ccc(N)c(OC)c2)ccc1N.Cl.Cl [3,3'-Dimethoxybenzidine dihydrochloride]
[3]; [18]
  LEL: 11 mg/kg/day
  NEL: < 11 mg/kg/day
[3]; [19]
  LOAEL: 109 mg/kg/day
  NOAEL: 56 mg/kg/day
[4]
  LEL: 6 mg/kg/day
  LOAEL: 6 mg/kg/day
  NEL: < 6 mg/kg/day
  NOAEL: < 6 mg/kg/day
[5]; [20]
  LOAEL: > 120 mg/kg/day
  NOAEL: ≥ 120 mg/kg/day
[5]; [21]
  LEL: 13 mg/kg/day
  NEL: < 13 mg/kg/day

## ClC1=C(Cl)[C@]2(Cl)[C@@H]3[C@@H]4C[C@@H]([C@H]5O[C@@H]45)[C@@H]3[C@@]1(Cl)C2(Cl)Cl [Dieldrin]
[6]
  LEL: 0.00035 mg/kg/day
  LOAEL: > 0.00035 mg/kg/day
  NEL: < 0.00035 mg/kg/day
  NOAEL: ≥ 0.00035 mg/kg/day
[7]
  LEL: 3 mg/kg/day
  LOAEL: > 6 mg/kg/day
  NEL: 1.5 mg/kg/day
  NOAEL: ≥ 6 mg/kg/day
[8]; [22]
  LEL: 2 mg/kg/day
  NEL: < 2 mg/kg/day
[8]; [23]
  LOAEL: > 16 mg/kg/day
  NOAEL: ≥ 16 mg/kg/day
[9]; systemic / pathology microscopic / brain / necrosis
  LOAEL: 5 mg/kg/day
[9]; systemic / pathology microscopic / brain / necrosis + systemic / in life observation / body weight / body weight
  LEL: 5 mg/kg/day
[9]; [24]
  NEL: 2.5 mg/kg/day
  NOAEL: 2.5 mg/kg/day
[10]; [25]
  LOAEL: 0.375 mg/kg/day
  NOAEL: < 0.375 mg/kg/day
[10]; [26]
  LEL: 0.375 mg/kg/day
  NEL: < 0.375 mg/kg/day
[11]; [27]
  LEL: 1.45 mg/kg/day
  NEL: < 1.45 mg/kg/day
[11]; systemic / in life observation / clinical signs / convulsions
  LOAEL: 3.25 mg/kg/day
[11]; systemic / in life observation / clinical signs / convulsions + systemic / in life observation / body weight / body weight + systemic / in …
  NOAEL: 1.45 mg/kg/day
[12]
  LEL: 0.75 mg/kg/day
  LOAEL: > 0.75 mg/kg/day
  NEL: < 0.75 mg/kg/day
  NOAEL: ≥ 0.75 mg/kg/day
[13]
  LEL: 2.5 mg/kg/day
  LOAEL: > 2.5 mg/kg/day
  NEL: 0.5 mg/kg/day
  NOAEL: ≥ 2.5 mg/kg/day

— EPA's ToxRefDB 2
